According to ChEMBL document CHEMBL1137917, “Synthesis and structure-activity investigation of iodinated arylhydantoins and arylthiohydantoins for development as androgen receptor radioligands” (Bioorg Med Chem Lett, 2004):
pKi: −log10 of the molar value.

biological target: T1, Androgen receptor (Rattus norvegicus, UniProt P15207); assay: Inhibition of rat prostate cytosolic androgen receptor
T1 sequence (P15207 whole entry): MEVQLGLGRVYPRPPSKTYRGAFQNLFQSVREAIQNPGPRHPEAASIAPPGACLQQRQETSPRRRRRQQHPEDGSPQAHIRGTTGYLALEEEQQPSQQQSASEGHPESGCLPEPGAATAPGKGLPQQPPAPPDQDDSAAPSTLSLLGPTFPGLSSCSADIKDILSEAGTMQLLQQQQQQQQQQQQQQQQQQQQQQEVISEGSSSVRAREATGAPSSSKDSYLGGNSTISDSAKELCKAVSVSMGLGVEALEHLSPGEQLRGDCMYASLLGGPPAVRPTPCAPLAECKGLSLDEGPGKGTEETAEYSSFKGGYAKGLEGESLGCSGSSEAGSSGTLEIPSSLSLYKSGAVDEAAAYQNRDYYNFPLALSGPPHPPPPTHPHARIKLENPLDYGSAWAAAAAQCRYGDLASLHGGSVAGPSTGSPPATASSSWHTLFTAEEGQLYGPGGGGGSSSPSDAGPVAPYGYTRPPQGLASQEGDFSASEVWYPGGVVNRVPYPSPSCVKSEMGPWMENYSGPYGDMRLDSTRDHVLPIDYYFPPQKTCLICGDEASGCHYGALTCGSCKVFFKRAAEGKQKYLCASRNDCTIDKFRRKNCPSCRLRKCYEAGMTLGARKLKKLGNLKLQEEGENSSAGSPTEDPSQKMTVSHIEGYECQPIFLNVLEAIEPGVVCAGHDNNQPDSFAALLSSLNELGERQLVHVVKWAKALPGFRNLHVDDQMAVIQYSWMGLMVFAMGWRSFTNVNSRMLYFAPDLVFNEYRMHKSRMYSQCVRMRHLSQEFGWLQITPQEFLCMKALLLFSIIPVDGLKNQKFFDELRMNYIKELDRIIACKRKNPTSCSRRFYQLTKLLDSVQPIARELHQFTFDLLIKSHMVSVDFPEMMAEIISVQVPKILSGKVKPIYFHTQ

Compound	pKi
CC1(C)C(=O)N(c2ccc(C#N)c(I)c2)C(=S)N1Cc1ccccc1	6.66
CCCCN1C(=S)N(c2ccc(C#N)c(I)c2)C(=O)C1(C)C	6.93
CC1(C)C(=O)N(c2ccc(C#N)c(I)c2)C(=O)N1CCCCO	8.70
CN1C(=S)N(c2ccc(C#N)c(I)c2)C(=O)C1(C)C	8.60
CCCCN1C(=O)N(c2ccc(C#N)c(I)c2)C(=O)C1(C)C	7.11
COCCN1C(=S)N(c2ccc(C#N)c(I)c2)C(=O)C1(C)C	7.43
C=CCN1C(=O)N(c2ccc(C#N)c(I)c2)C(=O)C1(C)C	7.23
CC1(C)C(=O)N(c2ccc(C#N)c(I)c2)C(=O)N1CCCc1ccccc1	6.19
